Laboratory results taken from patent US7618990B2, “Oxazolidone derivatives as PR modulators” (Wyeth, priority 2006, dated 2009).

Columns and labels:
[1] = system: alkaline phosphatase activity in T47D cells; experiment: Effects of progestins and antiprogestins on alkaline phosphatase activity in T47D cells (antagonist mode); type: cell-based; details: Homo sapiens, in the presence of 1 nM progesterone, read-out: T47D Alkaline Phosphatase Activity IC50 (nM) or % inhibition; for IC50: 24 h; for inhibition at 3 µM: % inhibition at 3000 nM
Protocol: (1) Effects of Progestins and Antiprogestins on Alkaline Phosphatase Activity in T47D Cells
PURPOSE: To identify progestins or antiprogestins by determining a compound's effect on alkaline phosphatase activity in T47D cells.
Culture Medium: • DMEM:F12 (1:1) (GIBCO, BRL) supplemented with 5% (v/v) charcoal stripped fetal bovine serum (not heat-inactivated), 100 U/mL penicillin, 100 μg/mL streptomycin, and 2 mM the GlutaMax™ reagent (GIBCO, BRL).
Alkaline Phosphatase Assay Buffer: • I. 0.1M Tris-HCl, pH 9.8, containing 0.2% the Triton® X-100 reagent • II. 0.1M Tris-HCl, pH 9.8, containing 4 mM p-nitrophenyl phosphate (Sigma). B. Cell Culture and Treatment:
Frozen T47D cells were thawed in a 37° C. water bath and diluted to 280,000 cells/mL in culture medium. To each well in a 96-well plate (Falcon, Becton Dickinson Labware), 180 μL of diluted cell suspension was added.
Twenty μL of reference or test compounds diluted in the culture medium was then added to each well. When testing for progestin antagonist activity, reference antiprogestins or test compounds were added in the presence of 1 nM progesterone. The cells were incubated at 37° C. in a 5% CO2/humidified atmosphere for 24 h.
NOTE: For high throughput screening, one concentration of each compound was tested at 0.3 μg/mL. Based on an average molecular weight of 300 g/mol for the compounds in the library, the concentration was approximately 1 μM. Subsequently, active compounds were tested in dose response assays to determine EC50 and IC50. C. Alkaline Phosphatase Enzyme Assay:
At the end of treatment, the medium was removed from the plate. Fifty μL of assay buffer I was added to each well. The plates were shaken in a titer plate shaker for 15 min. Then 150 μL of assay buffer II was added to each well. Optical density measurements were taken at 5 min intervals for 30 min at a test wavelength of 405 nm.
For reference and test compounds, a dose response curve was generated for dose (X-axis) vs. the rate of enzyme reaction (slope) (Y-axis). Square root-transformed data was used for analysis of variance and nonlinear dose response curve fitting for both agonist and antagonist modes. Huber weighting was used to down-weight the effects of outliers. EC50 or IC50 values were calculated from the retransformed values. JMP software (SAS Institute, Inc.) was used for both one-way analysis of variance and non-linear dose response analysis in both single dose and dose response studies.
Progesterone and trimegestone were reference progestins and RU486 was the reference antiprogestin. All reference compounds were run in full dose response curves and the EC50 and IC50 values were calculated.

Row | melting point | IC50 [1] | SMILES | inhibition at 3 µM [1] | inhibition at 0.003 µM ([1]; % inhibition at 3 nM)
1 | 219 to 221 °C | 21.6 nM | N#Cc1ccc(-c2csc(N3C(=O)OCC34CC4)n2)cc1 [Example 25, 4-[2-(5-oxo-6-oxa-4-azaspiro[2.4]hept-4-yl)-1,3-thiazol-4-yl]benzonitrile] |  | 
2 | 197 to 199 °C | 158 nM | O=C1OCCN1c1nc(-c2ccc(Br)cc2)cs1 [Example 28, 3-[4-(4-Bromophenyl)-1,3-thiazol-2-yl]-1,3-oxazolidin-2-one] |  | 
3 | 156 to 157 °C | 88.8 nM | CCCC1COC(=O)N1c1nc(-c2ccc(Br)cc2)cs1 (centres unmarked) [Example 29, 3-[4-(4-Bromophenyl)-1,3-thiazol-2-yl]-4-propyl-1,3-oxazolidin-2-one] |  | 
4 | 153 to 155 °C |  | CCCCC1COC(=O)N1c1nc(-c2ccc(Br)cc2)cs1 (centres unmarked) [Example 30, 3-[4-(4-Bromophenyl)-1,3-thiazol-2-yl]-4-butyl-1,3-oxazolidin-2-one] | 100% | 
5 | 126 to 128 °C | 21.9 nM | CC(C)C1COC(=O)N1c1nc(-c2ccc(C#N)cc2)cs1 (centres unmarked) [Example 43, 4-[2-(4-Isopropyl-2-oxo-1,3-oxazolidin-3-yl)-1,3-thiazol-4-yl]benzonitrile] |  | 
6 | 174 to 176 °C | 191 nM | N#Cc1ccc(-c2csc(N3C(=O)OC[C@H]3Cc3ccccc3)n2)cc1 [Example 44, 4-{2-[(4R)-4-Benzyl-2-oxo-1,3-oxazolidin-3-yl]-1,3-thiazol-4-yl}benzonitrile] |  | 
7 | 243 to 245 °C | 166 nM | N#Cc1ccc(-c2csc(N3C(=O)OC[C@H]3c3ccccc3)n2)cc1 [Example 45, 4-{2-[(4R)-2-Oxo-4-phenyl-1,3-oxazolidin-3-yl]-1,3-thiazol-4-yl}benzonitrile] |  | 
8 | 242 to 244 °C | 194 nM | N#Cc1ccc(-c2csc(N3C(=O)OC[C@@H]3c3ccccc3)n2)cc1 [Example 46, 4-{2-[(4S)-2-Oxo-4-phenyl-1,3-oxazolidin-3-yl]-1,3-thiazol-4-yl}benzonitrile] |  | 
9 | 196 to 198 °C | 45.4 nM | N#Cc1ccc(-c2csc(N3C(=O)OCC34CCCC4)n2)cc1 [Example 47, 4-[2-(2-Oxo-3-oxa-1-azaspiro[4.4]non-1-yl)-1,3-thiazol-4-yl]benzonitrile] |  | 
10 | 244 to 245 °C |  | N#Cc1ccc(-c2csc(-n3c(=O)oc4ccccc43)n2)cc1 [Example 54, 4-[2-(2-Oxo-1,3-benzoxazol-3(2H)-yl)-1,3-thiazol-4-yl]benzonitrile] | 50% | 
11 | 166 to 167 °C | 1.8 nM | CC1OC(=O)N(c2nc(-c3ccc(C#N)cc3)cs2)C1(C)C (centres unmarked) [Example 62, 4-[2-(4,4,5-Trimethyl-2-oxo-1,3-oxazolidin-3-yl)-1,3-thiazol-4-yl]benzonitrile] |  | 
12 | 158 to 161 °C | 53.4 nM | CC1(C)COC(=N)N1c1nc(-c2ccc(C#N)cc2)cs1 [Example 63, 4-[2-(2-imino-4,4-dimethyl-1,3-oxazolidin-3-yl)-1,3-thiazol-4-yl]benzonitrile] |  | 
13 | 163 to 165 °C | 95.5 nM | O=C1OCC(CC(F)(F)F)N1c1nc(-c2ccc(Br)cc2)cs1 (centres unmarked) [Example 67, 3-[4-(4-Bromophenyl)-1,3-thiazol-2-yl]-4-(2,2,2-trifluoroethyl)-1,3-oxazolidin-2-one] |  | 

The remaining lines, values behind:

Row | SMILES | melting point | IC50 [1] | inhibition at 3 µM [1] | inhibition at 0.003 µM ([1]; % inhibition at 3 nM)
14 | O=C1OCC2(CC2)N1c1nc(-c2ccc(Br)cc2)cs1 [Example 24, 4-[4-(4-Bromophenyl)-1,3-thiazol-2-yl]-6-oxa-4-azaspiro[2.4]heptane-5-one] | 201 to 202 °C | 292 nM |  | 
15 | CC1CN(c2nc(-c3ccc(Br)cc3)cs2)C(=O)O1 (centres unmarked) [Example 31, 3-[4-(4-Bromophenyl)-1,3-thiazol-2-yl]-5-methyl-1,3-oxazolidin-2-one] | 191 to 193 °C | 68.8 nM |  | 
16 | CCC1CN(c2nc(-c3ccc(Br)cc3)cs2)C(=O)O1 (centres unmarked) [Example 32, 3-[4-(4-Bromophenyl)-1,3-thiazol-2-yl]-5-ethyl-1,3-oxazolidin-2-one] | 141 to 142 °C | 407 nM |  | 
17 | O=C1OCCCN1c1nc(-c2ccc(Br)cc2)cs1 [Example 33, 3-[4-(4-Bromophenyl)-1,3-thiazol-2-yl]-1,3-oxazinan-2-one] | 225 to 227 °C | 238 nM |  | 
18 | CC1(C)COC(=O)N(c2nc(-c3ccc(Br)cc3)cs2)C1 [Example 39, 3-[4-(4-Bromophenyl)-1,3-thiazol-2-yl]-5,5-dimethyl-1,3-oxazinan-2-one] | 169 to 171 °C | 1370 nM |  | 
19 | CC1(C)COC(=O)N1c1nc(-c2cccc(C#N)c2)cs1 [Example 52, 3-[2-(4,4-dimethyl-2-oxo-1,3-oxazolidin-3-yl)-1,3-thiazol-4-yl]benzonitrile] | 181 to 183 °C |  | 95% | 
20 | CCC1(CC)COC(=O)N1c1nc(-c2ccc(C#N)cc2)c(F)s1 [Example 53, 4-[2-(4,4-Diethyl-2-oxo-1,3-oxazolidin-3-yl)-5-fluoro-1,3-thiazol-4-yl]benzonitrile] | 151 to 153 °C |  |  | 40%
21 | N#Cc1ccc(-c2nc(N3C(=O)OCC34CC4)sc2F)cc1 [Example 55, 4-[5-Fluoro-2-(5-oxo-6-oxa-4-azaspiro[2.4]hept-4-yl)-1,3-thiazol-4-yl]benzonitrile] | 222 to 224 °C | 41.9 nM |  | 
22 | Cc1sc(N2C(=O)OCC2(C)C)nc1-c1ccc(Br)cc1 [Example 56, 3-[4-(4-Bromophenyl)-5-methyl-1,3-thiazol-2-yl]-4,4-dimethyl-1,3-oxazolidin-2-one] | 175 to 176.5 °C | 437 nM |  | 
23 | Cc1sc(N2C(=O)OCC2(C)C)nc1-c1ccc(C#N)cc1 [Example 57, 4-[2-(4,4-Dimethyl-2-oxo-1,3-oxazolidin-3-yl)-5-methyl-1,3-thiazol-4-yl]benzonitrile] | 192.5 to 193 °C | 101 nM |  | 
24 | CC1(C)COC(=O)N1c1nc(-c2sc(C#N)cc2Br)cs1 [Example 59, 4-Bromo-5-[2-(4,4-dimethyl-2-oxo-1,3-oxazolidin-3-yl)-1,3-thiazol-4-yl]thiophene-2-carbonitrile] | 230 to 234 °C | 99 nM |  | 
25 | CC1(C)COC(=O)N1c1nc(-c2ccc(C#N)s2)cs1 [Example 60, 5-[2-(4,4-dimethyl-2-oxo-1,3-oxazolidin-3-yl)-1,3-thiazol-4-yl]thiophene-2-carbonitrile] | 250 to 251 °C | 43.5 nM |  | 
26 | CC1(C)COC(=O)N1c1nc(-c2csc(C#N)c2)cs1 [Example 61, 4-[2-(4,4-Dimethyl-2-oxo-1,3-oxazolidin-3-yl)-1,3-thiazol-4-yl]thiophene-2-carbonitrile] | 249 to 251.5 °C | 37.8 nM |  | 
27 | N#Cc1ccc(-c2csc(N3C(=O)OC[C@@H]3CC(F)(F)F)n2)cc1 [Example 68, 4-{2-[(4S)-2-Oxo-4-(2,2,2-trifluoroethyl)-1,3-oxazolidin-3-yl]-1,3-thiazol-4-yl}benzonitrile] | 235 to 238 °C | 29.1 nM |  | 
28 | N#Cc1ccc(-c2csc(N3C(=O)OC[C@H]3CC(F)(F)F)n2)cc1 [Example 69, 4-{2-[(4R)-2-Oxo-4-(2,2,2-trifluoroethyl)-1,3-oxazolidin-3-yl]-1,3-thiazol-4-yl}benzonitrile] | 235 to 238 °C | 63.8 nM |  | 
